Results: patent publication US7547718B2, “Substituted imidazoles” (Pfizer Limited, priority 2006, dated 2009)

What follows are compounds tested on Rhipicephalus sanguineus (brown dog tick) (assay: In vitro tick assay (Rhip. Funct.)). Conditions: unfed R. sanguineus in precoated glass vials; lowest dose at which all five ticks were seen moving; observed at 24, 48 and 72 hours.
Text: Application of octopamine agonists to acarids for example, ticks, causes distinct behavioural changes compared to untreated control ticks. Treated ticks become agitated and move constantly, this prevents ticks attaching and feeding on a host animal to which the compound has been applied. Normal behaviour of ticks is to go into stasis when all other external stimuli are removed. Agitation and movement can be measured in vitro in the laboratory to predict efficacy and potency in vivo.
The assay was run using unfed Rhipicephalus sanguineus (brown dog tick) and precoated glass vials with an inner surface area of 34.5 cm^2. Each compound was tested in duplicate.
Compound (345 μg) was dissolved in isopropyl alcohol (500 μl) and delivered to each vial. The vials were placed on a tilting roller in a fume hood for 2 hours to allow the isopropyl alcohol to evaporate giving a compound concentration for each vial of 10 μg/cm^2. Five R. sanguineus (male and female) were added to each coated vial and the vial sealed with a firm wad of cotton wool. Vials were then kept, undisturbed, on the bench at room temperature. Observation and recordings of activity were taken at 24, 48 and 72 hours after addition of ticks to the vials. The ED100 value was determined as the lowest dose at which all five ticks were seen moving around inside the vial.
With `Cc1cccc(C(C)c2nccn2COC(=O)OCCC(C)C)c1C` (centres unmarked) [Example 139, {2-[1-(2,3-Dimethylphenyl)ethyl]-1H-imidazol-1-yl}methyl 3-methyl butyl carbonate] the “Rhip. Funct. ED100” value was “<=0.03 mg/cm^2”. For `CCC(CC)COC(=O)n1ccnc1[C@@H](C)c1cccc(C)c1C` [Example 233, 2-Ethyl butyl 2-[(1S)-1-(2,3-dimethylphenyl)ethyl]-1H-imidazole-1-carboxylate], the “Rhip. Funct. ED100” value was “<=10 mg/cm^2”. For `Cc1cccc([C@H](C)c2nccn2C(=O)OCc2c(F)c(F)c(F)c(F)c2F)c1C` [Example 270, Pentafluorobenzyl 2-[(1S)-1-(2,3-dimethylphenyl)ethyl]-1H -imidazole-1-carboxylate], the “Rhip. Funct. ED100” value was “<=10 mg/cm^2”. In the case of `Cc1cccc([C@H](C)c2nccn2C(=O)OCc2c(C)c(C)c(C)c(C)c2C)c1C` [Example 294, Pentamethylbenzyl 2-[(1S)-1-(2,3-dimethylphenyl)ethyl]-1H -imidazole-1-carboxylate], the “Rhip. Funct. ED100” value was greater than 0.03 mg/cm^2. `Cc1cccc(C(C)c2nccn2COC(=O)CC(C)C)c1C` (centres unmarked) [Example 68, {2-[1-(2,3-Dimethylphenyl)ethyl]-1H-imidazol-1-yl}methyl 3-methyl butanoate] was tested, and the “Rhip. Funct. ED100” value was 0.03 mg/cm^2. In the case of `CCC(C)C(C)COC(=O)n1ccnc1[C@@H](C)c1cccc(C)c1C` (stereo partly drawn) [Example 253, 2,3-Dimethyl pentyl 2-[(1S)-1-(2,3-dimethylphenyl)ethyl]-1H-imidazole-1-carboxylate], the “Rhip. Funct. ED100” value was 0.1 mg/cm^2. For `Cc1cccc(C(C)c2nccn2COC(=O)NCCc2ccc(Cl)cc2Cl)c1C` (centres unmarked) [Example 148, {2-[1-(2,3-Dimethylphenyl)ethyl]-1H-imidazol-1-yl}methyl[2-(2,4-dichlorophenyl)ethyl]carbamate], the “Rhip. Funct. ED100” value was greater than 1 mg/cm^2. With `Cc1cccc(C(C)c2nccn2COC(=O)OC2CCC2)c1C` (centres unmarked) [Example 141, Cyclobutyl{2-[1-(2,3-dimethylphenyl)ethyl]-1H-imidazol-1-yl}methyl carbonate] the “Rhip. Funct. ED100” value was 0.03 mg/cm^2.
